The values that follow come from PMC10384982, “Investigation of Novel Benzoxazole-Oxadiazole Derivatives as Effective Anti-Alzheimer’s Agents: In Vitro and In Silico Approaches” (Pharmaceuticals, 2023).

Each structure is given as a SMILES string.

The target in one test is T1, butyrylcholinesterase (BuChE) (Equus caballus, UniProt P81908).
T1 construct: butyrylcholinesterase (E.C. 3.1.1.8) from equine serum; purchased Sigma–Aldrich (Steinheim, Germany); host or cells: equine serum
T1 sequence (P81908 whole entry): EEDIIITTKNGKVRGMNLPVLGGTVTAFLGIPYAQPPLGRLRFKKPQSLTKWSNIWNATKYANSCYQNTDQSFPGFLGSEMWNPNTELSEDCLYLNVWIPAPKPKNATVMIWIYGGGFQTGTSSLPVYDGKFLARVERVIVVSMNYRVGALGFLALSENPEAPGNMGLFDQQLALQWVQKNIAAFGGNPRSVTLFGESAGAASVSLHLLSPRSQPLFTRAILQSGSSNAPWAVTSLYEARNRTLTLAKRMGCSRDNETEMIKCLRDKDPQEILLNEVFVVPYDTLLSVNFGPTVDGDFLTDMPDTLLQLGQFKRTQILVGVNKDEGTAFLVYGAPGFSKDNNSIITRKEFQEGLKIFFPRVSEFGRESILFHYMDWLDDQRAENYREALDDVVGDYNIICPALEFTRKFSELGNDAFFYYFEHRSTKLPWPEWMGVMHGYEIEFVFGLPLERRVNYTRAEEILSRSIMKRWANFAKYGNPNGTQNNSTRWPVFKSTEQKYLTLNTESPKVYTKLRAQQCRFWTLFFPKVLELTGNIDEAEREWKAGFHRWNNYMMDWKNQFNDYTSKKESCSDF
The test is described as follows: biochemical.
Settings: not given
As for the experimental part: Acetylcholinesterase (E.C.3.1.1.7) (Type VI-S from electric eel and recombinant human enzyme) and butyrylcholinesterase (E.C. 3.1.1.8) from equine serum were purchased from Sigma–Aldrich (Steinheim, Germany). All of the materials used in the synthesis were purchased from Merck or Sigma–Aldrich (St. Louis, MO, USA) (Darmstadt, Germany). The ^1H NMR and ^13C NMR spectra in DMSO-d6 were recorded using a Bruker operating at 600 and 150 MHz digital FT-NMR spectrometer (Billerica, MA, USA, Bioscience, Bruker). The NMR spectra’s splitting patterns were recognized and categorized as doublet (d), singlet (s), double doublet (dd), multiplet (m) and triplet (t). In hertz, the coupling constants (J) are given (Hz). Mass spectra were captured on a Shimadzu LCMS-IT-TOF system (Kyoto, Japan) using the electrospray ionization (ESI) method. Using thin-layer chromatography and silica gel 60 F254 to test the purity of synthesized compounds (Darmstadt, Germany, Merck, KGaA).
The inhibition of AChE and BChE was determined using a method described earlier. Briefly, the stock solutions (1 mg/mL) of test analogues were prepared using DMSO. The working solutions (1–100 µg/mL) were prepared using serial dilutions (a serial dilution means a series of diluted solutions, e.g., 0.1 mg/mL, 0.2 mg/mL and so on; the solutions contained 5% DMSO and 95% water). The various concentrations of test compounds (10 µL) were pre-incubated with sodium phosphate buffer (0.1 M; pH 8.0; 150 µL) and AChE (0.1 U/mL; 20 µL) for 15 min at 25 °C. The reaction was initiated via the addition of DTNB (1 mM; 10 µL) and […] (1 mM; 10 µL). The mixture of reaction was mixed using a cyclomixer and incubated for 10 min at 25 °C. The absorbance was measured using a microplate reader at a 410 nm wavelength against the blank reading containing 10 µL DMSO instead of the test compound (the solution contained 5% DMSO and 95% water).
Consider `O=[N+]([O-])c1ccc(-c2nnc(/N=C(/CSc3nc4ccccc4o3)c3cccc([N+](=O)[O-])c3)o2)cc1` [Compound 1, (E)-2-(Benzo[d]oxazol-2-ylthio)-1-(3-nitrophenyl)-N-(5-(4-nitrophenyl)-1,3,4-oxadiazol-2-yl)ethan-1-imine], for which the midpoint of inhibition, the IC50, lay at 8.9 ± 1.8 µM.

`O=[N+]([O-])c1cccc(/C(CSc2nc3ccccc3o2)=N\c2nnc(-c3cccc([N+](=O)[O-])c3)o2)c1` [Compound 2, (E)-2-(Benzo[d]oxazol-2-ylthio)-1-(3-nitrophenyl)-N-(5-(3-nitrophenyl)-1,3,4-oxadiazol-2-yl)ethan-1-imine]: the IC50 (usually the concentration needed to halve the response being measured) was found to be 7.5 ± 1.2 µM.

The test is the same for the next values; noted with them: read-out: BuChE Inhibition IC50 ± SEM.
Regarding `Cc1cccc(/C(CSc2nc3ccccc3o2)=N\c2nnc(-c3ccc(OCc4ccccc4)cc3)o2)c1` [Compound 13, (E)-2-(Benzo[d]oxazol-2-ylthio)-N-(5-(4-(benzyloxy)phenyl)-1,3,4-oxadiazol-2-yl)-1-(m-tolyl)ethan-1-imine], the IC50 was determined as 31.5 ± 4.9 µM.

Take `Cc1ccc(/C(CSc2nc3ccccc3o2)=N\c2nnc(-c3ccc4ccccc4c3)o2)cc1` [Compound 14, (E)-2-(Benzo[d]oxazol-2-ylthio)-N-(5-(naphthalen-2-yl)-1,3,4-oxadiazol-2-yl)-1-(p-tolyl)ethan-1-imine]: the IC50 came to 42.6 ± 6.1 µM.

For `Cc1ccc(/C(CSc2nc3ccccc3o2)=N\c2nnc(-c3ccc(Cl)cc3Cl)o2)cc1` [Compound 9, (E)-2-(Benzo[d]oxazol-2-ylthio)-N-(5-(2,4-dichlorophenyl)-1,3,4-oxadiazol-2-yl)-1-(p-tolyl)ethan-1-imine], the IC50 came to 14.8 ± 2.7 µM.

As to `O=[N+]([O-])c1cccc(/C(CSc2nc3ccccc3o2)=N\c2nnc(-c3ccc(Cl)cc3Cl)o2)c1` [Compound 3, (E)-2-(Benzo[d]oxazol-2-ylthio)-N-(5-(2,4-dichlorophenyl)-1,3,4-oxadiazol-2-yl)-1-(3-nitrophenyl)ethan-1-imine], the 50% inhibitory concentration (IC50) came to 9.2 ± 1.9 µM.

As to `CN(C)c1ccc(-c2nnc(/N=C(/CSc3nc4ccccc4o3)c3cccc([N+](=O)[O-])c3)o2)cc1` [Compound 5, (E)-4-(5-((2-(Benzo[d]oxazol-2-ylthio)-1-(3-nitrophenyl)ethylidene)amino)-1,3,4-oxadiazol-2-yl)-N,N-dimethylaniline], the IC50 was determined as 16.6 ± 2.5 µM.

Regarding `CN(C)c1ccc(-c2nnc(/N=C(/CSc3nc4ccccc4o3)c3ccc(Cl)c(Cl)c3)o2)cc1` [Compound 18, (E)-4-(5-((2-(Benzo[d]oxazol-2-ylthio)-1-(3,4-dichlorophenyl)ethylidene)amino)-1,3,4-oxadiazol-2-yl)-N,N-dimethylaniline], the IC50 came out at 18.3 ± 3.2 µM.

In the case of `Clc1ccc(/C(CSc2nc3ccccc3o2)=N\c2nnc(-c3ccc(Cl)c(Cl)c3)o2)cc1Cl` [Compound 15, (E)-2-(Benzo[d]oxazol-2-ylthio)-1-(3,4-dichlorophenyl)-N-(5-(3,4-dichlorophenyl)-1,3,4-oxadiazol-2-yl)ethan-1-imine], the IC50 was found to be 7.2 ± 2.3 µM.

Take `Cc1ccc(/C(CSc2nc3ccccc3o2)=N\c2nnc(-c3cccc([N+](=O)[O-])c3)o2)cc1` [Compound 7, (E)-2-(Benzo[d]oxazol-2-ylthio)-N-(5-(3-nitrophenyl)-1,3,4-oxadiazol-2-yl)-1-(p-tolyl)ethan-1-imine]: the IC50 came out at 15.8 ± 3.1 µM.

Turning to `Cc1ccc(/C(CSc2nc3ccccc3o2)=N\c2nnc(-c3ccc(C=O)cc3)o2)cc1` [Compound 12, (E)-4-(5-((2-(Benzo[d]oxazol-2-ylthio)-1-(p-tolyl)ethylidene)amino)-1,3,4-oxadiazol-2-yl)benzaldehyde], the IC50 amounted to 28.7 ± 3.9 µM.

Take `O=[N+]([O-])c1ccc(-c2nnc(/N=C(/CSc3nc4ccccc4o3)c3ccc(Cl)c(Cl)c3)o2)cc1` [Compound 19, (E)-2-(Benzo[d]oxazol-2-ylthio)-1-(3,4-dichlorophenyl)-N-(5-(4-nitrophenyl)-1,3,4-oxadiazol-2-yl)ethan-1-imine]: the IC50 is 9.8 ± 2.3 µM.

For the compound `Cc1ccc(/C(CSc2nc3ccccc3o2)=N\c2nnc(-c3ccc(OCc4ccccc4)cc3)o2)cc1` [Compound 6, (E)-2-(Benzo[d]oxazol-2-ylthio)-N-(5-(4-(benzyloxy)phenyl)-1,3,4-oxadiazol-2-yl)-1-(p-tolyl)ethan-1-imine], the half-inhibitory concentration (IC50) stood at 28.6 ± 3.8 µM.

Consider `Cc1ccc(/C(CSc2nc3ccccc3o2)=N\c2nnc(-c3ccc([N+](=O)[O-])cc3)o2)cc1` [Compound 10, (E)-2-(Benzo[d]oxazol-2-ylthio)-N-(5-(4-nitrophenyl)-1,3,4-oxadiazol-2-yl)-1-(p-tolyl)ethan-1-imine], for which the IC50 stood at 18.5 ± 1.9 µM.

In the case of `Cc1ccc(/C(CSc2nc3ccccc3o2)=N\c2nnc(-c3ccc(N(C)C)cc3)o2)cc1` [Compound 8, (E)-4-(5-((2-(Benzo[d]oxazol-2-ylthio)-1-(p-tolyl)ethylidene)amino)-1,3,4-oxadiazol-2-yl)-N,N-dimethylaniline], the IC50 is 24.6 ± 3.8 µM.

For the compound `O=[N+]([O-])c1cccc(-c2nnc(/N=C(/CSc3nc4ccccc4o3)c3ccc(Cl)c(Cl)c3)o2)c1` [Compound 16, (E)-2-(Benzo[d]oxazol-2-ylthio)-1-(3,4-dichlorophenyl)-N-(5-(3-nitrophenyl)-1,3,4-oxadiazol-2-yl)ethan-1-imine], the IC50 is 7.6 ± 2.1 µM.

Regarding `Cc1ccc(/C(CSc2nc3ccccc3o2)=N\c2nnc(-c3ccc(Cl)cc3)o2)cc1` [Compound 11, (E)-2-(Benzo[d]oxazol-2-ylthio)-N-(5-(4-chlorophenyl)-1,3,4-oxadiazol-2-yl)-1-(p-tolyl)ethan-1-imine], the 50% inhibitory concentration (IC50) came out at 12.3 ± 1.5 µM.

Turning to `O=[N+]([O-])c1cccc(/C(CSc2nc3ccccc3o2)=N\c2nnc(-c3ccc(Cl)cc3)o2)c1` [Compound 4, (E)-2-(Benzo[d]oxazol-2-ylthio)-N-(5-(4-chlorophenyl)-1,3,4-oxadiazol-2-yl)-1-(3-nitrophenyl)ethan-1-imine], the half-maximal inhibitory concentration (IC50) came to 11.9 ± 1.1 µM.

`Clc1ccc(-c2nnc(/N=C(/CSc3nc4ccccc4o3)c3ccc(Cl)c(Cl)c3)o2)cc1` [Compound 17, (E)-2-(Benzo[d]oxazol-2-ylthio)-N-(5-(4-chlorophenyl)-1,3,4-oxadiazol-2-yl)-1-(3,4-dichlorophenyl)ethan-1-imine]: the 50% inhibitory concentration (IC50) is 13.3 ± 3.2 µM.
